From patent publication US5068244A, “Benzocyclohexanes and analgesic compositions thereof” (Roussel Uclaf, priority 1988, dated 1991)

Target: T1, opiate receptor K (Cavia porcellus, UniProt P41144)
T1 construct: Membranous sediment preserved at -30° C; and prepared from guinea pig cerbelli were used; from tissue; host or cells: guinea pig cerebellum membranes
Assay: Binding of the opiate receptor K in vitro (displacement of 3H ethylketocyclazocine)
Settings: guinea pig cerebellum membranes, 3H ethylketocyclazocine 1 nM, Tris pH 7.7, 25° C., 40 minutes; read-out: CI50 (the source's name)
Protocol: Membranous sediment preserved at -30° C. (possibly for 30 days) and prepared from guinea pig cerbelli were used. The sediments were put in suspension in the buffer Tris pH 7.7. Fractions of 2 ml were distributed in hemolysis tubes and ^3 H ethylketocyclazocine 1 nM and the product to be studied were added. The following were determined: the maximum quantity of fixed radioactivity in the presence of ^3 H ethylketocyclazocine alone, the quantity of radioactivity bonded in a non-specific manner in the presence of the tritiated ligand and of an excess (10^-5 M) of the reference product known under the name of U-50488 H and the displacement of specific bonding produced by a dose of 5×10^-5 M of the product to be tested.
These tests were carried out in triplicate and aliquotes of 2 ml were incubated at 25° C. for 40 minutes. After returning to 0° C. for 5 minutes at the end of the incubation, they were filtered with Whatman GF/C filters, rinsed in Tris buffer pH 7.7 and the radioactivity was counted in the presence of scintillating Triton. When the product to be tested displaced the specifically fixed radioactivity by more than 50%, the 50% inhibiting concentration (CI50) was determined by a 7 dose scale. The results of the 50% inhibiting concentration were then expressed in nM. The CI50 was therefore the concentration of the product studied, expressed in nM, necessary to displace 50% of the specifically fixed radioactivity on the receptor studied (LAHTI et al, 1982, Life Sci., Vol. 31, 2257) The results are as follows: […]

T1 sequence (P41144 whole entry): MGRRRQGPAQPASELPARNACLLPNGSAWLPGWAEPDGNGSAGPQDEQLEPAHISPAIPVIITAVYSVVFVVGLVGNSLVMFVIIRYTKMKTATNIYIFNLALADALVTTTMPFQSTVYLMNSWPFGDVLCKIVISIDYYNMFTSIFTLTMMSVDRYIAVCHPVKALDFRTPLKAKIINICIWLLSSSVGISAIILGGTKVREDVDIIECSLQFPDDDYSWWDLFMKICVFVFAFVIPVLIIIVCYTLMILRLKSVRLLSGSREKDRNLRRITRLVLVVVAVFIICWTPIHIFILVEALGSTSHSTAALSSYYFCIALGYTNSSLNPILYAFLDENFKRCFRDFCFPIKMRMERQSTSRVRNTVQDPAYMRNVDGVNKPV

Structure (SMILES)	IC50
CN(C(=O)Cc1cccc2sccc12)[C@H]1c2ccccc2CC[C@@H]1N1CCCC1 (relative stereo) [Example 20, Trans (±) N-methyl-N-[2-(1-pyrrolidinyl)-1,2,3,4-tetrahydro-1-naphthyl]-4-benzo-[b]-thiophene acetamide]	3.3 nM
CN(C(=O)Cc1cccc2ccccc12)[C@H]1c2ccccc2CC[C@@H]1N1CCCC1 (relative stereo) [Example 3, Trans (±) N-methyl-N-[2-(1-pyrrolidinyl)-1,2,3,4-tetrahydro-1-naphthyl]-1-naphthalene acetamide]	11 nM
CN(C(=O)Cc1ccc([N+](=O)[O-])cc1)[C@H]1c2ccccc2CC[C@@H]1N1CCCC1 (relative stereo) [Example 2, Trans (±) N-methyl-4-nitro-N-[2-(1-pyrrolidinyl)-1,2,3,4-tetrahydro-1-naphthyl]-benzene acetamide]	12 nM
